# Data from PMC9839752, “Formaldehyde reacts with N-terminal proline residues to give bicyclic aminals” (Communications Chemistry, 2023).
# Like-named read-outs stand apart in the source and are kept apart here. Peptide text beside a SMILES is read from it.
# What was measured:
# [1] = 1H NMR time course of reaction of dipeptides with HCHO; format: physicochemical; settings: dipeptide with 10-fold excess HCHO, pD 10, 1H NMR
# Experimental: Fig. 3 HCHO reacts with an N-terminal proline to form a methylene bridge between an N-terminal nitrogen and the adjacent peptide bond nitrogen. a Products of reactions between HCHO and the dipeptides AzeGlu (n = 1, 1), ProGlu (n = 2, 2), and PipGlu (n = 3, 3). A 10-fold molar excess of aqueous HCHO (410 µmol) was added to each dipeptide (41 µmol).
# The reactions of the dipeptides with HCHO (10-fold excess, pD 10) were studied in real time by ^1H NMR (Figs. 3c and S18). […] Dipeptide 2 was slower to react (2a formation rate 0.24 μM s^−1), while 3 was the slowest to react (3a formation rate 0.054 μM s^−1). […]
# (§1) NMR Time Course and Stability – Dipeptides
# The dipeptide (23.3 µmol) was dissolved in D 2O; the pD was adjusted to 10 (corresponding to pH 9.6) using NaOD and DCl (total volume: 1 mL, 23.3 mM stock). HCHO (30.0 mg, 1.0 mmol) was suspended with D2O in a sealed microwave vial and heated until a clear colourless solution was obtained; the pD was then adjusted with NaOD and DCl to 10 (total volume: 3 mL, 1/3 M stock). For time course measurements, the dipeptide stock solutions (100 μL, 2.33 μmol) at pD 10 and D 2O (400 μL) were mixed and recorded. HCHO (70 μL, 23.3 μmol, 10 equivalents) at pD 10 was added and progress was monitored for the indicated time. To investigate the stability of the NMR-observed HCHO adducts, a 40-fold excess with respect to starting material of the HCHO scavenger 1,3-cyclohexanedione (1,3-CHD, 93.2 μL from 1 M stock in D2O) was added. […]
# [2] = NMR stability of HCHO adducts to HCHO scavengers and pH; format: physicochemical; settings: for stability of HCHO adduct to 1,3-cyclohexanedione (1,3-CHD): 40-fold excess 1,3-CHD, pD 10, analysis period 22 h
# Experimental: To investigate the stability and reversibility of the HCHO adducts (1a + b, 2a, 3a, 4a), the dipeptides were reacted with a 10-fold excess of HCHO at pD 10, then treated with the HCHO scavenger 1,3-cyclohexanedione (1,3-CHD)[14]. […]
# as §1
# The dipeptide (23.3 µmol) was dissolved in D 2O; the pD was adjusted to 10 (corresponding to pH 9.6) using NaOD and DCl (total volume: 1 mL, 23.3 mM stock). HCHO (30.0 mg, 1.0 mmol) was suspended with D2O in a sealed microwave vial and heated until a clear colourless solution was obtained; the pD was then adjusted with NaOD and DCl to 10 (total volume: 3 mL, 1/3 M stock). For time course measurements, the dipeptide stock solutions (100 μL, 2.33 μmol) at pD 10 and D 2O (400 μL) were mixed and recorded. HCHO (70 μL, 23.3 μmol, 10 equivalents) at pD 10 was added and progress was monitored for the indicated time. To investigate the stability of the NMR-observed HCHO adducts, a 40-fold excess with respect to starting material of the HCHO scavenger 1,3-cyclohexanedione (1,3-CHD, 93.2 μL from 1 M stock in D2O) was added.
# Additionally, stability studies of the HPLC -purified 2a and the corresponding pentapeptide PEPAK-HCHO adduct were conducted. To achieve a 40-fold excess of HCHO scavengers (46.8 μmol) with respect to peptide starting material, the appropriate volumes of GSH (186.4 μL from 250 mM stock), cysteine (46.6 μL from 1 M stock) or 1,3 -cyclohexanedione (46.6 μL from 1 M stock) were added to the peptide-HCHO adducts (50 μL, 1.17 μmol, 23.3 mM stock in D2O) in 400 μL of D2O, thoroughly mixed and recorded. To test for stability of the adduct in different pH conditions, HPLC purified 2a (45 μL of 23.3 mM stock) was dissolved in 405 μL of 50 mM potassium phosphate buffer (D2O) at pH 5.9, 7.4 and 8.5 (pD 6.3, 7.8 and 8.9), thoroughly mixed and recorded.
# [3] = in vitro; settings: human, hek293t cells
# Experimental: (§2) We then investigated whether the H2B-HCHO adduct can be identified in human HEK293T cells treated with HCHO. […] Given that N-terminal amino acids and their modifications can regulate protein stability by affecting degradation (the N-end rule)[27], we next investigated whether addition of HCHO to cells affects H2B turnover. HEK293T cells were treated with cycloheximide (CHX) to inhibit protein synthesis, with addition of HCHO and protein quantification.
# (§3) (1 picture or pasted object on this page, not shown here)
# [4] = tested on: H2B mRNA; settings: HEK293T, HCHO 150+225 µM vs untreated, q = 0.043
# Experimental: as §2
# (§4) Figure S26 | Stability of proteins with an N-terminal proline in the presence of HCHO and RNA-Seq analyses. a) HEK293T cells were treated with 120 µM HCHO (or acetone, or MQ water control; 100 mM stock solutions of carbonyl compounds in MQ water) for 14 h. The cells were then treated with 100 µM cycloheximide (CHX; from a 100 mM DMSO stock solution) and were harvested after 3 h.
# (§5) Additionally, HEK293T cells were treated with 120 µM HCHO (or acetone, or MQ water control) for 14 h, followed by addition of CHX. 7.5 h after the CHX treatment, a further 180 µM of the carbonyl […]
# as §3
# (§6) (ab133512). Secondary antibodies used were anti-mouse IgG, HRP-linked Antibody (Cell Signaling, reference 7076), anti-Rabbit IgG (H+L) HRP Conjugate (Promega reference W4011).
# HEK293T cells (0.9x106) were seeded into 6 cm dishes as biological triplicates. […]
# [5] = tested on: H2A mRNA; settings: HEK293T, HCHO-treated vs untreated, q = 0.043
# Experimental: as §2, §6
# (§7) HEK293T cells (0.9x106) were seeded into 6 cm dishes as biological triplicates. The next day, cells were treated with 150 μM HCHO (or MQ water control), followed by another cumulative treatment of 225 μM HCHO (or MQ water control) the day after that. Cells were harvested 4 h af ter the second
# [6] = tested on: H3 mRNA; settings: HEK293T, HCHO-treated vs untreated, q = 0.034
# Experimental: as §2, §6, §7
# [7] = tested on: H2A; settings: HEK293T, HCHO, CHX (100 µM)
# Experimental: as §2, §4, §5, §3
# [8] = tested on: H2B; settings: HEK293T, HCHO, >10 h CHX (100 µM)
# Experimental: as §2, §4, §5, §3
# [9] = tested on: H3; settings: HEK293T, HCHO, CHX (100 µM)
# Experimental: as §2, §4, §5, §3
# [10] = biological target: leukotriene A-4 hydrolase (LTA4H) (Homo sapiens, UniProt P09960); settings: HEK293T, CHX (100 µM)
# Chain of leukotriene A-4 hydrolase (LTA4H) (P09960 2-611 limits assumed): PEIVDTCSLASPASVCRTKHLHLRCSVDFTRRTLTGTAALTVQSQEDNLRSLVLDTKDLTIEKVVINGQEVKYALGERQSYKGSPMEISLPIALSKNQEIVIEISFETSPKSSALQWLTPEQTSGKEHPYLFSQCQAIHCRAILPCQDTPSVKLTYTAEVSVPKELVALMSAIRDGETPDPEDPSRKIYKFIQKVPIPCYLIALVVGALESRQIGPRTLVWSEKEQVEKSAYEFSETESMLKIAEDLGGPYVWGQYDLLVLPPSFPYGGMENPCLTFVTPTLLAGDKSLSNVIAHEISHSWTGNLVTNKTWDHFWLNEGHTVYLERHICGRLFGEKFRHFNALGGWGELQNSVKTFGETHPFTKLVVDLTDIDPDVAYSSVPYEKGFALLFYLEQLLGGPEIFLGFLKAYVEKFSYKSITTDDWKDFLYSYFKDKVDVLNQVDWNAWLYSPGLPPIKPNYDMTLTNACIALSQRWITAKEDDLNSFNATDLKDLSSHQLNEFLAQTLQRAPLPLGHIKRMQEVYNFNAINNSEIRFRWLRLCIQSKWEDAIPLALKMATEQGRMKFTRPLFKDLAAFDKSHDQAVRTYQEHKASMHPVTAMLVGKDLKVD
# Experimental: as §2, §4, §5, §3
# [11] = biological target: T1, 4-oxalocrotonate tautomerase (4-OT) (Pseudomonas putida, UniProt Q01468); settings: 4-OT (52.9 µM) pre-incubated with 200 equivalents of HCHO (10.6 mM) 17 h, 37 °C; buffer control complete after 14 min
# T1 sequence (Q01468 2-63): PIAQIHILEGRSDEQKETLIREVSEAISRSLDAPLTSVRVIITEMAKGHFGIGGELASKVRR
# [12] = tested on: BL21(DE3) cells
# [13] = biological target: T2, 4-OT (Pseudomonas putida, UniProt Q01468); assay: cell-based
# T2 sequence (Q01468 2-63 limits assumed): as the sequence (Q01468 2-63) above
# [14] = biological target: T1, 4-oxalocrotonate tautomerase (4-OT); assay: biochemical
# [15] = biological target: T3, human JmjC KDM KDM4E (Homo sapiens, UniProt B2RXH2); assay: KDM4E-catalysed H3K9Me3 peptide demethylation, MALDI MS; format: biochemical; settings: 800 μM NOG instead of 2OG, 24 h
# T3 construct: made in house; host or cells: E. coli BL21(DE3)
# T3 sequence (B2RXH2 with tags, fused parts or gaps): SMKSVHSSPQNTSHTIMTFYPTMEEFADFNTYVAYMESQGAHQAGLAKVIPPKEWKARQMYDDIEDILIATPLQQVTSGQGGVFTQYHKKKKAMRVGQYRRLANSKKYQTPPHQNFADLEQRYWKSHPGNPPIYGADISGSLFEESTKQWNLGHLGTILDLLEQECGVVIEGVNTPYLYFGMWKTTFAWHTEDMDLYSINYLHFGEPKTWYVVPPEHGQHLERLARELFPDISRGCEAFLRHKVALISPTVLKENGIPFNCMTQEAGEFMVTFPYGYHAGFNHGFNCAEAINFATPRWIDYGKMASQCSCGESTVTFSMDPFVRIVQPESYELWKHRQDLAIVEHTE
# [16] = biological target: T2, 4-OT; assay: 4-OT absorbance assay (320 nm), kinetic parameters; format: biochemical; settings: substrate acetaldehyde, 375 µM trans-β-nitrostyrene, 10 µM 4-OT, pH 7.4
structure (smiles),measurement,setting,value
O=C(O)CC[C@@H](C(=O)O)N1CN2CC[C@H]2C1=O [1a],formation rate of HCHO adduct,[1],> 1.73 µM/s
same,"stability of HCHO adduct to 1,3-cyclohexanedione (1,3-CHD)",[2],"underwent 1,3-CHD-enabled reaction to give 1"
O=C(O)CC[C@H](NC(=O)[C@@H]1CCN1CO)C(=O)O [1b],"stability of HCHO adduct to 1,3-cyclohexanedione (1,3-CHD)",[2],"underwent 1,3-CHD-enabled reaction to give 1"
O=C(O)CC[C@@H](C(=O)O)N1CN2CCC[C@H]2C1=O [2a],formation rate of HCHO adduct,[1],0.24 µM/s
same,"stability of HCHO adduct to 1,3-cyclohexanedione (1,3-CHD)",[2],relatively stable
same,stability across a biologically relevant pH range,"[2]; pH 5.9, 7.4 and 8.5",apparently stable
same,stability in the presence of HCHO scavengers cysteine and GSH,[2]; scavengers in 40-fold excess,apparently stable
O=C(O)CC[C@@H](C(=O)O)N1CN2CCCC[C@H]2C1=O [3a],formation rate of HCHO adduct,[1],0.054 µM/s
same,"stability of HCHO adduct to 1,3-cyclohexanedione (1,3-CHD)",[2],relatively stable
C[C@H]1C(=O)N([C@@H](CCC(=O)O)C(=O)O)CN1CO [4a],"stability of HCHO adduct to 1,3-cyclohexanedione (1,3-CHD)",[2],hemiaminal group of 4a was lost to give 4b
"C=O [HCHO, Formaldehyde]",MNTC,[3],> 200 µM
same,"H2B mRNA level, fold less in untreated cells",[4],0.37 fold
same,"H2A mRNA level, fold less in untreated cells",[5],0.33 fold
same,"H3 mRNA level, fold less in untreated cells",[6],0.42 fold
same,H2A levels after prolonged CHX treatment,[7],higher levels
same,H2B levels after prolonged CHX treatment,[8],apparently higher H2B levels
same,H3 levels after prolonged CHX treatment,[9],higher levels
same,HCHO-dependent effect on LTA4H stability,[10],no evidence for a HCHO-dependent effect on its stability
same,time to near-complete substrate conversion,[11],> 72 min
same,effect on cell proliferation,[12]; 350 μM HCHO,did not inhibit
same,effect on cell proliferation,[12]; 700 μM HCHO,only mildly inhibited
same,EC50,[13],~350 µM
same,IC50,[14],< 10000 µM
O=C(O)CNC(=O)C(=O)O [N-oxalylglycine],effect on H3K9Me3 demethylation and +12 Da H2B adduct formation,[15],abolished
CC=O [acetaldehyde],Km,[16],74 mM
"C[C@H](N)C(=O)N[C@@H](CCC(=O)O)C(=O)O [compound 4, AlaGlu] (H-Ala-Glu-OH)",formation rate of HCHO adduct,[1],did not react to give a detected product
